Experimental data reported in paper PMC9229843, “Cancer-Related Somatic Mutations in Transmembrane Helices Alter Adenosine A1 Receptor Pharmacology” (Molecules, 2022).
Residue numbers refer to the chain shown, from its start. Where two headings read alike, the source gives them in different places.

Legend:
[1] = molecular target: T1, hA1AR S246T^6.47 (Homo sapiens, UniProt P30542, S246T); conditions: [35S]GTPγS; ratio over basal activity of wild type hA1AR
T1 sequence (P30542 1-326 S246T): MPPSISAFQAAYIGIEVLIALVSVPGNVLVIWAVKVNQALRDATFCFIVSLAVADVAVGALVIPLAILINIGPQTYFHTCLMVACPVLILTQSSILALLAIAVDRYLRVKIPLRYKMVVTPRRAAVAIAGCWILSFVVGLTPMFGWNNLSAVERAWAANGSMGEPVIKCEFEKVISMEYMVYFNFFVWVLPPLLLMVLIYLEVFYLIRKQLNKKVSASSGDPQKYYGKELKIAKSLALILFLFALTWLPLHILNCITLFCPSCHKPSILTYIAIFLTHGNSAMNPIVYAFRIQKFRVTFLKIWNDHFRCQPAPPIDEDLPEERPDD
Method: (§1) Transient transfection of CHO cells with wild type or mutated hA1AR plasmid constructs was performed using a polyethylenimine (PEI) method. Cells were seeded in 10-cm culture dishes to achieve 50–60% confluency 24 h prior to transfection. On the day of transfection, cells were transfected with a PEI: DNA ratio of 3:1 and a plasmid DNA amount of 10 μg/dish. Moreover, 24 h post-transfection, the medium was refreshed, and 48 h after transfection, cells were collected and membranes were prepared as previously described. Membranes were aliquoted in 250 or 100 μL and stored at −80 °C. Membrane protein concentrations were determined using the BCA method.
(§2) [^35S]GTPγS binding assays were adapted from a previously published method. […] Then, 20 µL of [^35S]GTPγS (final concentration of 0.3 nM) was added to each well, followed by 90 min of incubation at 25 °C. Incubations were terminated and filter-bound radioactivity was measured as described above.
(§3) All experimental data were analyzed by GraphPad Prism 7.0 or 8.0 (GraphPad Software Inc., San Diego, CA, USA). Data from yeast liquid growth and [^35S]GTPγS binding assays were analyzed by non-linear regression using “log (agonist) vs. response (three parameters)” or “log (inhibitor) vs. response (three parameters)” to obtain potency (EC50), inhibitory potency (IC50), and efficacy (Emax or Imax) values. The radioligand displacement curves were obtained from a statistically preferred one-site or two-site binding model. pKi values were calculated from pIC50 values using the Cheng–Prusoff equation, where KD values were obtained from the homologous competition assays from this study and calculated by non-linear regression using “one site–homologous” [62].

[2] = molecular target: T2, hA1AR H78L^3.23 (Homo sapiens, UniProt P30542, H78L); conditions: [35S]GTPγS; ratio over basal activity of wild type hA1AR
T2 sequence (P30542 1-326 H78L): T1 sequence (P30542 1-326 S246T) with H78L, T246S
Method: as §1, §2, §3

[3] = molecular target: T3, hA1AR W188C^5.46 (Homo sapiens, UniProt P30542, W188C)
T3 sequence (P30542 1-326 W188C): T1 sequence (P30542 1-326 S246T) with W188C, T246S
Method: as §1, §2, §3

[4] = molecular target: T4, hA1AR L134F^4.52 (Homo sapiens, UniProt P30542, L134F); conditions: [35S]GTPγS; ratio over basal activity of wild type hA1AR
T4 sequence (P30542 1-326 L134F): T1 sequence (P30542 1-326 S246T) with L134F, T246S
Method: as §1, §2, §3

[5] = molecular target: T1, hA1AR S246T^6.47; conditions: ratio over basal activity of wild type hA1AR; yeast; 7 mM 3-AT
Method: The plasmids, pDT-PGK_hA1AR, containing either wild type or mutated hA1AR were transformed into a MMY24 S. cerevisiae strain following the lithium acetate procedure.
In order to characterize the mutant hA1ARs, liquid growth assays in 96-well plates were performed to obtain concentration–growth curves as previously described. […] The overnight cultures were then diluted to 40,000 cells/mL (OD600 ≈ 0.02) in a selective medium without uracil, leucine, and histidine (YNB-ULH). For the determination of constitutive activity, 50 μL of yeast cells and 150 μL of YNB-ULH medium containing different concentrations of 3-AT and 0.8 IU/mL ADA were then added to each well. […] After incubation at 30 °C for 35 h in a Genios plate reader (TECAN, Zürich, Switzerland) with shaking for 1 min at 300 rpm every 10 min, the optical density was measured at a wavelength of 595 nm, which represented the level of yeast cell growth.
All experimental data were analyzed by GraphPad Prism 7.0 or 8.0 (GraphPad Software Inc., San Diego, CA, USA). Data from yeast liquid growth and [^35S]GTPγS binding assays were analyzed by non-linear regression using “log (agonist) vs. response (three parameters)” or “log (inhibitor) vs. response (three parameters)” to obtain potency (EC50), inhibitory potency (IC50), and efficacy (Emax or Imax) values. […]

Q: `OC[C@H]1O[C@@H](n2cnc3c(NC4CCCC4)ncnc32)[C@H](O)[C@@H]1O` [CPA, N^6-cyclopentyladenosine] was tested. Which Emax [1] did it give?
A: 1.21 ± 0.10

Q: What about the Emax [2] of the same molecule?
A: 1.40 ± 0.10

Q: And the Emax ([3]; [35S]GTPγS, ratio over basal activity of wild type hA1AR)?
A: 1.94 ± 0.02

Q: What about the “decrease in the potency value versus wild type” value ([3]; mammalian system) of the same molecule?
A: 10 fold

Q: And the Emax [4]?
A: 1.48 ± 0.24

Q: And the Emax [5]?
A: 4.81 ± 0.26
